Source: patent publication EP0209237A2, “Vinyl-glycyl-amino-beta-lactam derivatives” (BEECHAM GROUP PLC, priority 1985, dated 1987)
≈ marks a conversion by molar mass, not a printed value. Where two headings read alike, the source gives them in different places.

How the values were obtained:
[1] = tested on: E.coli NCTC 10418; test: Minimum Inhibitory Concentration (MIC), agar dilution; assay type: cell-based; conditions: 5% v/v horse blood agar, two-fold dilutions, read after 24 hours; unit assumed
Method: (§1) The following Table gives Minimum Inhibitory Concentration (MIC) values for some of the compounds of the invention against S.pyogenes CN 10 and E.coli NCTC 10418. The E. coli was grown in tryptone soya broth and the S. pyogenes was grown in Todd Hewitt broth. The microorganisms were grown for 24hours and lul samples were then inoculated on to agar plates (comprising 5% v/v live horse blood agar) to which had been added the compounds of the invention at a series of two-fold dilutions.

[2] = tested on: S.pyogenes CN 10; test: as above; assay type: cell-based; conditions: 5% v/v horse blood agar, two-fold dilutions, read after 24 hours; unit assumed
Method: as §1

[3] = Squirrel monkey plasma levels; assay type: in vivo; conditions: for concentration at 0.25 h: 15 minutes, read-out: Plasma Levels, Time in Minutes 15; for concentration at 0.5 h: 30 minutes, read-out: Plasma Levels, Time in Minutes 30; for concentration at 1 h: 60 minutes, read-out: Plasma Levels, Time in Minutes 60; for concentration at 2 h: 120 minutes, read-out: Plasma Levels, Time in Minutes 120; for concentration at 4 h: 240 minutes, read-out: Plasma Levels, Time in Minutes 240; for concentration at 6 h: 360 minutes, read-out: Plasma Levels, Time in Minutes 360; for AUC: read-out: Area under the curve
[4] = tested on: S.agalactiae 2798; test: CD50, protection of mice infected with a lethal inoculum; assay type: in vivo; conditions: for ED50: read-out: Total CD50
Excerpt: (§2) The following Table gives CD50 values obtained after infecting groups of mice with a lethal inoculum of various bacteria and treating the mice with the compounds quoted. The CD50 value then represents the amount of compound necessary to protect 50% of the animals.

[5] = tested on: E.coli 96 R-; test: as above; assay type: in vivo; conditions: for ED50: Escherichia coli, 96R, read-out: Total CD50
Excerpt: as §2

[6] = tested on: S.aureus Smith; test: as above; assay type: in vivo; conditions: for ED50: Staphylococcus aureus, read-out: Total CD50
Excerpt: as §2

[7] = tested on: E.coli 96 R-; test: MIC against the infecting strain (Table 4); assay type: cell-based; conditions: Escherichia coli
[8] = tested on: S.aureus Smith; test: MIC against the infecting strain (Table 4); assay type: cell-based; conditions: Staphylococcus aureus
[9] = tested on: S.agalactiae 2798; test: MIC against the infecting strain (Table 4); assay type: cell-based; conditions: Streptococcus agalactiae
[10] = Streptococcus agalactiae, 2798, po, S.agalactiae 2798, p.o.

CC1(C)S[C@@H]2[C@H](NC(=O)[C@H](N)/C=C/C3CCCCC3)C(=O)N2[C@H]1C(=O)O [Example 14 (D-stereoisomer), 6β-(D-2-amino-4-cyclohexylbut-3(E)-enamido)penicillanic acid]
MIC E. coli NCTC 10418 [1]: 16 µg/mL (≈ 41.9 µM) | MIC S. pyogenes CN 10 [2]: < 0.06 µg/mL

CC1(C)S[C@@H]2[C@H](NC(=O)C(N)/C(=C/Cl)c3cccs3)C(=O)N2[C@H]1C(=O)O (stereo partly drawn) [Example 19, 6β-(D,L-2-Amino-4-chloro-3-thien-2-ylbut-3(Z)-enamido)penicillanic acid]
MIC E. coli NCTC 10418 [1]: 16 µg/mL (≈ 38.5 µM) | MIC S. pyogenes CN 10 [2]: < 0.03 µg/mL

CC1(C)S[C@@H]2[C@H](NC(=O)C(N)/C=C/c3ccc(Cl)cc3)C(=O)N2[C@H]1C(=O)O (stereo partly drawn) [Example 16, 6β-[D,L-2--Amino-4-(4-chlorophenyl)but-3(E)-enamido]penicillanic acid]
MIC E. coli NCTC 10418 [1]: 16 µg/mL (≈ 39 µM) | MIC S. pyogenes CN 10 [2]: < 0.06 µg/mL

C/C(=C/Cl)C(N)C(=O)N[C@@H]1C(=O)N2[C@@H]1SC(C)(C)[C@@H]2C(=O)O (stereo partly drawn) [Example 22, 6β-(D,L-2-Amino-4-chloro-3-methylbut-3(Z)-enamido) penicillanic acid]
MIC E. coli NCTC 10418 [1]: 8 µg/mL (≈ 23 µM) | MIC S. pyogenes CN 10 [2]: 0.12 µg/mL (≈ 0.345 µM)

C=C(c1cccs1)[C@@H](N)C(=O)N[C@@H]1C(=O)N2[C@@H]1SC(C)(C)[C@@H]2C(=O)O [Example 18 (D-stereoisomer), 6β-(D-2-amino-3-thien-2-yl-but-3-enamido)penicillanic acid]
MIC E. coli NCTC 10418 [1]: 16 µg/mL (≈ 41.9 µM) | MIC S. pyogenes CN 10 [2]: 0.06 µg/mL (≈ 0.157 µM)

C=C([C@@H](N)C(=O)N[C@@H]1C(=O)N2[C@@H]1SC(C)(C)[C@@H]2C(=O)O)C(F)(F)F [Example 17 (D-stereoisomer), 6,P-(D-2-amino-3-trifluoromethylbut-3-enamido)penicillanic acid]
MIC E. coli NCTC 10418 [1]: 4 µg/mL (≈ 10.9 µM) | MIC S. pyogenes CN 10 [2]: < 0.06 µg/mL

C/C=C/[C@@H](N)C(=O)N[C@@H]1C(=O)N2[C@@H]1SC(C)(C)[C@@H]2C(=O)O [Example 11 (D-stereoisomer), 6β-(D-2-Amino-pent-3(E)-enamido)penicillanic acid]
MIC E. coli NCTC 10418 [1]: 8 µg/mL (≈ 25.5 µM) | MIC S. pyogenes CN 10 [2]: < 0.06 µg/mL

C=C(C)[C@@H](N)C(=O)N[C@@H]1C(=O)N2[C@@H]1SC(C)(C)[C@@H]2C(=O)O [Example 6, 6,β-(D-2-Amino-3-methylbut-3-enamido)penicillanic-acid]
concentration at 0.25 h [3]: 8700 ng/mL | concentration at 0.5 h [3]: 16400 ng/mL | concentration at 1 h [3]: 20000 ng/mL | concentration at 2 h [3]: 13000 ng/mL | concentration at 4 h [3]: 2200 ng/mL | concentration at 6 h [3]: 900 ng/mL | AUC [3]: 46500 ng·h/mL | Total CD50 ([4]; S.agalactiae 2798, p.o.): 3.8 mg/kg | Total CD50 ([4]; S.agalactiae 2798, s.c.): 1.1 mg/kg | ED50 [4, 10]: 3.6 mg/kg | ED50 ([4]; Streptococcus agalactiae, 2798, sc, S.agalactiae 2798, s.c.): 1.5 mg/kg | ED50 ([5]; po): 32 mg/kg | Total CD50 ([5]; p.o.): 40 mg/kg | ED50 ([6]; po): 0.08 mg/kg | ED50 ([6]; sc): 0.15 mg/kg | Total CD50 ([6]; p.o.): 0.10 mg/kg | MIC E. coli NCTC 10418 [1]: 2 µg/mL (≈ 6.38 µM) | MIC S. pyogenes CN 10 [2]: < 0.03 µg/mL | MIC [7]: 4 µg/mL (≈ 12.8 µM) | MIC [8]: 0.12 µg/mL (≈ 0.383 µM) | MIC [9]: 0.25 µg/mL (≈ 0.798 µM)

C=C[C@@H](N)C(=O)N[C@@H]1C(=O)N2[C@@H]1SC(C)(C)[C@@H]2C(=O)O [Example 1, 6β-(D-2-Aminobut-3-enamido)penicillanic acid]
concentration at 0.25 h [3]: 4000 ng/mL | concentration at 0.5 h [3]: 14700 ng/mL | concentration at 1 h [3]: 32700 ng/mL | concentration at 2 h [3]: 15700 ng/mL | concentration at 4 h [3]: 2400 ng/mL | concentration at 6 h [3]: 800 ng/mL | AUC [3]: 59700 ng·h/mL | MIC E. coli NCTC 10418 [1]: 8 µg/mL (≈ 26.7 µM) | MIC S. pyogenes CN 10 [2]: 0.03 µg/mL (≈ 0.1 µM)

CC1(C)S[C@@H]2[C@H](NC(=O)C(N)/C(=C\Cl)c3cccs3)C(=O)N2[C@H]1C(=O)O (stereo partly drawn) [Example 20, 6B-(D,L-2-Amino-4-chloro-3-thien-2-ylbut-3(E)-enamido)penicillanic acid]
MIC E. coli NCTC 10418 [1]: 32 µg/mL (≈ 76.9 µM) | MIC S. pyogenes CN 10 [2]: 0.06 µg/mL (≈ 0.144 µM)

C=C(c1ccccc1)[C@@H](N)C(=O)N[C@@H]1C(=O)N2[C@@H]1SC(C)(C)[C@@H]2C(=O)O [Example 4 (D-stereoisomer), 6β-(D-2-amino-3-phenylbut-3-enamido)penicillanic acid]
MIC E. coli NCTC 10418 [1]: 8 µg/mL (≈ 21.3 µM) | MIC S. pyogenes CN 10 [2]: < 0.03 µg/mL

C=C(C)[C@@H](N)C(=O)N[C@@H]1C(=O)N2C(C(=O)O)=C(COC(C)=O)CS[C@H]12 [Example 7, 7,β-(D-2-Amino-3-methylbut-3-enamido)cephalosporanic acid]
MIC E. coli NCTC 10418 [1]: 32 µg/mL (≈ 86.6 µM) | MIC S. pyogenes CN 10 [2]: 0.25 µg/mL (≈ 0.677 µM)

CC/C=C/[C@@H](N)C(=O)N[C@@H]1C(=O)N2[C@@H]1SC(C)(C)[C@@H]2C(=O)O [Example 13 (D-stereoisomer), 6p-(D-2-aminohex-3(E)-enamido)penicillanic acid]
MIC E. coli NCTC 10418 [1]: 4 µg/mL (≈ 12.2 µM) | MIC S. pyogenes CN 10 [2]: < 0.06 µg/mL

CC1(C)S[C@@H]2[C@H](NC(=O)[C@H](N)c3ccc(O)cc3)C(=O)N2[C@H]1C(=O)O [Amoxycillin, reference compound]
concentration at 0.25 h [3]: 4800 ng/mL | concentration at 0.5 h [3]: 9700 ng/mL | concentration at 1 h [3]: 12600 ng/mL | concentration at 2 h [3]: 6700 ng/mL | concentration at 4 h [3]: 1100 ng/mL | concentration at 6 h [3]: 300 ng/mL | AUC [3]: 26200 ng·h/mL

C=C/C=C(\C)[C@@H](N)C(=O)N[C@@H]1C(=O)N2[C@@H]1SC(C)(C)[C@@H]2C(=O)O [Example 12 (D-stereoisomer), 6β-(D-2-amino-3-methylhex-3(E), 5-dienamido)penicillanic acid]
MIC E. coli NCTC 10418 [1]: 2 µg/mL (≈ 5.89 µM) | MIC S. pyogenes CN 10 [2]: 0.06 µg/mL (≈ 0.177 µM)

C=C(CC)[C@@H](N)C(=O)N[C@@H]1C(=O)N2[C@@H]1SC(C)(C)[C@@H]2C(=O)O [Example 9 (D-stereoisomer), 6,β-(D-2-amino-3-ethylbut-3-enamido)penicillanic acid]
MIC E. coli NCTC 10418 [1]: 2 µg/mL (≈ 6.11 µM) | MIC S. pyogenes CN 10 [2]: < 0.03 µg/mL

C/C=C(\C)[C@@H](N)C(=O)N[C@@H]1C(=O)N2[C@@H]1SC(C)(C)[C@@H]2C(=O)O [Example 10 (D-stereoisomer), 6β-(D-2-amino-3-methylpent-3(E)-enamido)penicillanic acid]
MIC E. coli NCTC 10418 [1]: 2 µg/mL (≈ 6.11 µM) | MIC S. pyogenes CN 10 [2]: < 0.06 µg/mL

C/C(=C\Cl)[C@@H](N)C(=O)N[C@@H]1C(=O)N2[C@@H]1SC(C)(C)[C@@H]2C(=O)O [Example 21 (D-stereoisomer), 6β-(D-2-Amino-4-chloro-3-methylbut-3(E)-enamido)-penicillanic acid]
MIC E. coli NCTC 10418 [1]: 4 µg/mL (≈ 11.5 µM) | MIC S. pyogenes CN 10 [2]: 0.06 µg/mL (≈ 0.173 µM)

CC1(C)S[C@@H]2[C@H](NC(=O)[C@H](N)C=C(Cl)Cl)C(=O)N2[C@H]1C(=O)O [Example 5 (D-stereoisomer), 6β-(D-2-amino-4,4-dichlorobut-3-enamido)penicillanic acid]
concentration at 0.25 h [3]: 20700 ng/mL | concentration at 0.5 h [3]: 28800 ng/mL | concentration at 1 h [3]: 24300 ng/mL | concentration at 2 h [3]: 16800 ng/mL | concentration at 4 h [3]: 2400 ng/mL | concentration at 6 h [3]: 1400 ng/mL | AUC [3]: 63000 ng·h/mL | Total CD50 ([4]; S.agalactiae 2798, p.o.): 0.6 mg/kg | ED50 [4, 10]: 0.9 mg/kg | ED50 ([5]; po): 40 mg/kg | ED50 ([5]; sc): 22 mg/kg | ED50 ([6]; sc): 0.08 mg/kg | Total CD50 ([6]; s.c.): 0.09 mg/kg | MIC E. coli NCTC 10418 [1]: 2 µg/mL (≈ 5.43 µM) | MIC S. pyogenes CN 10 [2]: < 0.03 µg/mL | MIC [7]: 2 µg/mL (≈ 5.43 µM) | MIC [8]: 0.06 µg/mL (≈ 0.163 µM) | MIC [9]: 0.06 µg/mL (≈ 0.163 µM)

CC1(C)S[C@@H]2[C@H](NC(=O)[C@H](N)/C=C/c3ccccc3)C(=O)N2[C@H]1C(=O)O [Example 15 (D-stereoisomer), 6p-(D-2-amino-4-phenylbut-3(E)enamido)penicillanic acid]
MIC E. coli NCTC 10418 [1]: 16 µg/mL (≈ 42.6 µM) | MIC S. pyogenes CN 10 [2]: < 0.06 µg/mL

CC(=O)OC/C=C/[C@@H](N)C(=O)N[C@@H]1C(=O)N2[C@@H]1SC(C)(C)[C@@H]2C(=O)O [Example 23, 6β-[5-Acetoxy-D-2-aminopent-3(E)-enamido] penicillanic acid]
MIC E. coli NCTC 10418 [1]: 32 µg/mL (≈ 86.2 µM) | MIC S. pyogenes CN 10 [2]: 0.12 µg/mL (≈ 0.323 µM)

C=C(C)[C@@H](N)C(=O)N[C@@H]1C(=O)N2C(C(=O)O)=C(C)CS[C@H]12 [Example 8, 7,β-[D-2-Amino-3-methylbut-3-enamido]-3-desacetoxy cephalosporanic acid]
MIC S. pyogenes CN 10 [2]: 2 µg/mL (≈ 6.42 µM)
